According to PubChem BioAssay (NCI):
Several values for one entry are separate records, joined by “and”; a condition that tells them apart may be missing. Identical values can stand only once.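 48-hour exposure; five concentrations; linearly interpolated endpoints. At the GI50, growth is halved. TGI denotes the concentration required for complete inhibition of growth.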

Tested on: MDA-MB-468 breast
Assay: DTP human tumour cell line panel, 48 h

Compound | GI50 | TGI
O=C1NC(=O)C(c2ccccc2Cl)=C1Nc1cccc(O)c1 | 0.706 µM | 7.16 µM
CN(C)CCNc1cccc2sc3ccc(O)cc3c(=O)c12 | 1.96 µM | 4.56 µM
ClCCn1cnc2c(SCc3ccccc3)ncnc21 | 11.1 µM | > 100 µM
COC(=O)c1ccc2c(c1)c1c(C)c3cnccc3c(C)c1n2C | 0.225 µM | 0.677 µM
O=C(N/N=C/c1ccc(F)cc1)c1[nH]c2ccc(I)cc2c1-c1ccccc1 | 0.345 µM | 13.9 µM
CC1=CC[C@@H]2C(C)(C)[C@@H](O)CC[C@@]2(C)[C@@H]1COc1ccc2ccc(=O)oc2c1 | 3.11 µM | 15 µM
COc1cccc(C2c3cc4c(cc3OC(N3CCOCC3)C2C)OCO4)c1O (configuration not stated) | 4.26 µM | > 100 µM
Cc1ccc2c(c1)sc(-c1ccc(N(C)C)cc1)[n+]2C | 0.302 µM | 5.74 µM
C=C1C(=O)O[C@H]2[C@H]1CC/C(COC(=O)c1ccc(C(=O)O)s1)=C\CC[C@@]1(C)O[C@@H]21 | 1.22 µM | 3.09 µM
CC(=O)Oc1ccc2c(c1)CC[C@@H]1C2[C@@H](O[N+](=O)[O-])C[C@@]2(C)C1CC[C@@H]2O (some centres not stated) | 22.5 µM | 89.2 µM
CCc1ccc(C2=C(O)C(=O)C(c3ccc(CC)cc3)=C(O)C2=O)cc1 | 1.86 µM | 6.26 µM
CCN(CC)CC(C)Nc1ccc(C)c2sc3ccccc3c(=O)c12 (configuration not stated) | 2.57 µM | 7.57 µM
Cc1ccc(-c2cc3nc(-c4ccccc4)nc(C(Cl)Cl)n3n2)cc1 | 0.383 µM | 1.31 µM
COc1ccc(-c2cn3ccnc3c(-c3ccc4ncn(C5CCCCC5)c4c3)n2)cc1 | 0.863 µM | > 100 µM
OC1CCC(Oc2cccc3cnc(Nc4ccc5nc[nH]c5c4)nc23)CC1 (configuration not stated) | 0.327 µM | 1.37 µM
O=C(Nc1ccc(Br)cc1)c1cc(Br)cc(Br)c1O | 2.32 µM | 5.66 µM

Compound | GI50 | TGI
Cc1ccc(S(=O)(=O)NCCN2c3nc4ccccc4cc3Sc3cc4ccccc4nc32)cc1 | 13.1 µM | > 100 µM
CC/C=C\C[C@H](O)C/C=C1/C(=O)C=C[C@@H]1C/C=C\CCCC(N)=O | 1.12 µM | 2.86 µM
Cn1cnc([N+](=O)[O-])c1Sc1ncnc2nc[nH]c12 | 2.1 µM and 3.37 µM | 70.3 µM and > 100 µM
CCN(CC)C(=S)SSC1CCCCC1 | 19.4 µM | 49.4 µM
Cc1cc(O)cc(C)c1/C=C/c1cncc(C(=O)N(C)C)c1 | > 25 µM | > 25 µM
CCCCc1cc(O)ccc1O | 14 µM | 31.7 µM
O=C(/C=C/c1ccc([N+](=O)[O-])o1)NNC(=O)c1cc2ccccc2cc1O | 0.721 µM | 3.59 µM
CCOC(=O)/C=C/c1ccc(C(=O)OCC)[nH]1 | 2.53 µM | 8.16 µM
CS(=O)(=O)Nc1cc(-c2ccc3ncc(C#N)c(NCc4ccccc4F)c3c2)cnc1Cl | 0.0781 µM | 1.08 µM
CC1(C)C(=O)/C(=C\c2ccco2)C[C@]2(C)[C@H]3CC=C4[C@@H]5C[C@](C)(C(=O)O)CC[C@]5(C)CC[C@@]4(C)[C@]3(C)CC[C@@H]12 | 10.7 µM | 26.5 µM
C=C(CNCCO)[C@@H]1CC[C@]2(CO)CC[C@]3(C)[C@H](CC[C@@H]4[C@@]5(C)CCC(NCCc6ccc(O)cc6)C(C)(C)[C@@H]5CC[C@]43C)[C@@H]12 (some centres not stated) | 0.782 µM | 2.34 µM
O=Nc1c2cccnc2n2nnc3ccc(Cl)cc3c12 | 0.136 µM | 0.701 µM
COc1cccc2c(=O)c3c(sc12)c(NCCCN)nc1ccccc13 | 1.63 µM | 3.2 µM
CCC(=O)N1C/C(=C/c2ccc(OC)cc2)C(=O)/C(=C/c2ccc(OC)cc2)C1 | 1.85 µM | 4.92 µM
O=[N+]([O-])/C=C\c1ccc2c(c1)OCO2 | 2.17 µM | 5.82 µM
